Measurements: patent publication US20050267029A1, “Compounds which modulate amyloidogenesis and methods for their identification and use” (priority 2004, published 2005)
Where a chain is given by its changes, count along the chain named. Read-outs that look alike come from different tables or passages of the source. Square brackets hold non-standard residues; d marks the D form. Ends that are not written are not given here.

What was measured:
J774A.1 cells [1] = assay: Cell culture amyloidogenesis, amyloid detected by Congo Red (CR) staining; type: cell-based, murine
Procedure: The murine monocytic cell line J774A.1 (American Type Culture Collection, Manassas, Va.) was cultured in RPMI (Sigma) medium which contained 25 mM HEPES, 15% fetal bovine serum (FBS) and 50 μg/ml penicillin-streptomycin, at 37° C., 5% CO2. The cell stocks were passaged every four days, and the medium replaced every other day. Cells were seeded at a minimal density in 8-well chamber slides (Lab-Tek®, Nalge Nunc International, Naperville, Ill.) in 350 μl medium/well and allowed to reach about 80-90% confluence (3 days), about 2.2×10^5 cells per well. […] At the end of the treatment period, the cells were either stained with Congo red to visualize the amyloid deposits, or the cells were dissolved in 1% NaOH and assayed for amyloid fibrils by thioflavin-T (Th-T) fluorescence as described by LeVine (Methods Enzymol. 1999 309:274-284). […]
Congo Red (CR) staining for amyloid was performed on cells that were rinsed with PBS, fixed for 10 minutes in 70% ethanol, and then stained for 45 minutes with Congo red prepared in alkaline 80% ethanol, NaCl saturated solution. […] Quantitation of amyloid was performed by Th-T fluorescence as described by LeVine (Methods Enzymol. 1999 309:274-284). Fluorescence spectra of Th-T were acquired at 25° C. with a Spectra Max Gemini 96-well plate reader. […] Control spectra of Th-T and cell extract alone were determined. […]

J774 cells = assay: HDL-SAA binding/uptake by J774 cells (western blot); type: cell-based, murine; conditions: 50 μM
J774A.1 cells [2] = conditions: for Effect on amyloidogenesis / amyloid deposition in cell culture (in words): increasing concentrations of test agent
Procedure: AA-amyloid deposits were detected by histochemical staining with Alcian blue and direct quantitation by Th-T fluorescence.
The ability of a number of potential anti-amyloid compounds to modulate amyloid formation in this cell culture system was tested. To determine the effects of these potential anti-amyloid compounds, cell culture amyloidogenesis was induced in the presence of increasing concentrations of the test agents. Amyloid loads were quantified by Th-T fluorescence.
The murine monocytic cell line J774A.1 (American Type Culture Collection, Manassas, Va.) was cultured in RPMI (Sigma) medium which contained 25 mM HEPES, 15% fetal bovine serum (FBS) and 50 μg/ml penicillin-streptomycin, at 37° C., 5% CO2. The cell stocks were passaged every four days, and the medium replaced every other day. Cells were seeded at a minimal density in 8-well chamber slides (Lab-Tek®, Nalge Nunc International, Naperville, Ill.) in 350 μl medium/well and allowed to reach about 80-90% confluence (3 days), about 2.2×10^5 cells per well. To induce AA-amyloidogenesis, cells were treated for 24 hours with 30 μg of AEF in the culture medium, then the medium was removed and the cells rinsed with fresh medium. To these cells 350 μl of medium was added containing either 0.3 mg/ml HDL-SAA, HDL, 0.05 mg/ml SAA1.1 or SAA2.1, replenished every two days for 7 days. At the end of the treatment period, the cells were either stained with Congo red to visualize the amyloid deposits, or the cells were dissolved in 1% NaOH and assayed for amyloid fibrils by thioflavin-T (Th-T) fluorescence as described by LeVine (Methods Enzymol. 1999 309:274-284).

IAPP = target: T1, IAPP (Homo sapiens, UniProt P10997); conditions: cited from earlier work
T1 construct: human islet amyloid polypeptide, a major component of amyloid deposits found in the pancreas
T1 sequence (P10997 34-70 limits assumed): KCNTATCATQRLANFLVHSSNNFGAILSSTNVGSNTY

Aβ1-40 = Aβ1-40 (Homo sapiens, UniProt P05067); conditions: 100 μM, cell-free system; cited from earlier work
Sequence of Aβ1-40 (P05067 672-711): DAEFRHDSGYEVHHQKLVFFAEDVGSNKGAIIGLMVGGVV

## ANRHGRSGKNPNYYRPPGLPAKY (ANRHGRSGKNPNYYRPPGLPAKY-NH2) [23-mer basic]
J774A.1 cells [1]; 2 μM
  Inhibition of CR-detectable amyloid: completely inhibit CR-detectable amyloid

## WRAYTDMKEAGWKDGDKYFHARGNYDAAQRGPG [33-mer]
J774 cells
  Effect on HDL-SAA binding to J774 cells: completely blocked HDL-SAA binding/uptake
J774A.1 cells [2]; AEF preincubation not used
  Enhancement of amyloid formation: greater than 50%
J774A.1 cells [2]; cells preincubated with AEF
  Enhancement of amyloid formation: up to 180%
J774A.1 cells [2]
  Effect on amyloidogenesis / amyloid deposition in cell culture (in words): increasing amyloid load in culture

## ADQEANRHGRSGKDPNYYRPPGLPAKY [27-mer]
J774 cells
  Effect on HDL-SAA binding to J774 cells: did not interfere with HDL-SAA binding to cells
J774A.1 cells [2]
  IC50: 20 nM
J774A.1 cells [2]; 70 nM versus 4.2 μM SAA1.1
  Fold less than the SAA1.1 concentration used to generate AA-amyloid: about 60 fold
J774A.1 cells [2]; 70 nM versus 100 μM
  Fold less peptide needed than the IAPP peptides (100 μM) for similar inhibition: 1400 fold
J774A.1 cells [2]; 27-mer versus PVS
  IC50 fold lower than that for PVS: 25 fold
J774A.1 cells [2]; SAA1.1 concentration 4.2 μM
  Concentration achieving a similar level of inhibition (80 to 85%) of amyloid load: 70 nM

## heparin [reference compound]
J774 cells
  Effect on HDL-SAA binding to J774 cells: prevented HDL-SAA binding to cells

## ADQAANEWGRSGKDPNHFRPAGLPEKY [SEQ ID NO:9]
J774A.1 cells [2]
  Effect on amyloidogenesis / amyloid deposition in cell culture (in words): equivalent inhibitory activity

## ADQEANAAGASGKDPNYYRPPGLPAKY (OTHER INFORMATION: Synthetic) [27-mer; R83A/H84A/R86A]
J774A.1 cells [2]
  Effect on amyloidogenesis / amyloid deposition in cell culture (in words): complete loss of inhibitory activity

## ADQEANRHGRSGKDPNYYRPPGLPAKY ([dA][dD][dQ][dE][dA][dN][dR][dH]G[dR][dS]G[dK][dD][dP][dN][dY][dY][dR][dP][dP]G[dL][dP][dA][dK][dY]) [D-27mer]
J774A.1 cells [1]; 20 μM, co-incubated with HDL-SAA
  Formation of CR-detectable amyloid: prevented the formation of any CR-detectable amyloid

## FLVHSS [residues 15-20 of human islet amyloid polypeptide]
IAPP
  Effect on beta-sheet transition and fibril formation of human islet amyloid polypeptide: strong enhancers of beta-sheet transition and fibril formation

## LANFLV [residues 12-17 of human islet amyloid polypeptide]
IAPP
  Effect on beta-sheet transition and fibril formation of human islet amyloid polypeptide: strong enhancers of beta-sheet transition and fibril formation

## KLVFF [Aβ peptide (residues 16-20)]
Aβ1-40
  Effect on Aβ1-40 fibril assembly: prevent fibril assembly

## chondroitin sulfate [reference compound]
J774A.1 cells [2]
  Effect on amyloidogenesis / amyloid deposition in cell culture (in words): unable to affect amyloid deposition at any concentration tested

## PLPAQGKPGPDHYARNDSYAKNRYERG (OTHER INFORMATION: Synthetic) [SEQ ID NO:8, reference compound]
J774A.1 cells [2]
  Effect on amyloidogenesis / amyloid deposition in cell culture (in words): complete loss of inhibitory activity

## polyvinylsulfonate [PVS, reference compound]
J774 cells
  Effect on HDL-SAA binding to J774 cells: prevented HDL-SAA binding to J774 cells
J774A.1 cells [2]; Th-T fluorescence
  100% inhibition of amyloidogenesis (IC100): 9 µM
J774A.1 cells [2]; read-out: 50% inhibition of amyloidogenesis (IC50), Th-T fluorescence, test agent present throughout HDL-SAA treatments
  IC50: 500 nM

B1: SAA1.1: purified delipidated murine serum amyloid A isoform 1.1 (protein, UniProt P05366 20-122, looked up)
Serum amyloid A-1 protein: GFFSFVHEAFQGAGDMWRAYTDMKEANWKNSDKYFHARGNYDAAQRGPGGVWAAEKISDGREAFQEFFGRGHEDTIADQEANRHGRSGKDPNYYRPPGLPDKY
J774A.1 cells [2]; purified delipidated isoform 50 μg/ml with AEF
  Amyloid produced, % of HDL-SAA: 9%

B2: SAA2.1: purified delipidated murine serum amyloid A isoform 2.1 (protein, UniProt P05367 20-122, looked up)
Serum amyloid A-2 protein: B1 Serum amyloid A-1 protein with V6I, H7G, N27G, N30D, S31G, G60A, A63S, I76M, D101A
J774A.1 cells [2]; with AEF, CR stain or Th-T fluorescence
  Amyloid produced from SAA form (in words): no amyloid was detected
